The text below walks through data of patent EP1992228A1, “Insecticidal substituted thiourea derivatives” (Bayer CropScience AG, priority 2007, dated 2008).

The subject of one series is Meloidogyne incognita. Nature of the series: Meloidogyne-test, OP resistant (MELGIN spray application). The series is classed as in vivo. The settings on record: application rate of 20 ppm, sand with egg/larval suspension and lettuce seeds, read-out: activity (nematicidal efficacy in % with reference to gall formation). On the procedure:
Meloidogyne-test, OP resistant (MELGIN spray application)
(§1) To produce a suitable preparation of active compound, 1 part by weight of active compound is mixed with the stated amount of solvent and emulsifier, and the concentrate is diluted with emulsifier-containing water to the desired concentration.
Containers are filled with sand, active compound solution, Meloidogyne incognita egg/larval suspension and lettuce seeds. The lettuce seeds germinate and the plantlets develop. The galls develop on the roots.
After the desired time, the nematicidal efficacy is determined in % with reference to gall formation. 100 % means that no galls were found; 0 % means that the number of galls on the treated plants corresponds to that of the untreated control.

The test system of another series is Tetranychus urticae. Nature of the series: Tetranychus-test, OP-resistant (TETRUR, spray application). The series is classed as in vivo. The settings on record: application rate of 100 g/ha, spray on French bean, two spotted spidermite, all stages. On the procedure:
Tetranychus-test, OP-resistant (TETRUR, spray application)
as §1
French bean (Phaseolus vulgaris) which are heavily infested with all stages of the two spotted spidermite (Tetranychus urticae), are sprayed with a preparation of the active ingredient at the desired concentration.
After the specified period of time, mortality in % is determined. 100 % means that all spider mites have been killed; 0 % means that none of the […] have been killed.

Another series relates to Boophilus microplus. The series is described as follows: Boophilus microplus-test (injektion). The series is classed as in vivo. The settings on record: application rate of 20 µg/animal; injected in the abdomen. How it is done: Boophilus microplus-test (injektion)
as §1
The solution of the active compound is injected in the abdomen (Boophilus microplus); the animals are transferred into a cup and stayed in a rooming with an air condition.
After the specified period of time, the efficiany mortality in % is determined. 100 % means that no tick has lay fertile eggs.

A further series concerns Myzus persicae. Nature of the series: Myzus persicae-test (MYZUPE, spray application). The settings on record: spray on Chinese cabbage leaf-disks, green peach aphid, all instars; for mortality at 500 g/ha: application rate of 500 g/ha; for mortality at 100 g/ha: application rate of 100 g/ha. The series is classed as in vivo. How it is done:
Myzus persicae-test (MYZUPE, spray application) [table] [table] To produce a suitable preparation of active compound, 1 part by weight of active compound is mixed with the stated amount of solvent and emulsifier, and the concentrate is diluted with emulsifier-containing water to the desired concentration. Chinese cabbage (Brassica pekinensis) leaf-disks infected with all instars of the green peach aphid (Myzus persicae), are sprayed with a preparation of the active ingredient at the desired concentration. After the specified period of time, mortality in % is determined. 100 % means that all aphids have been killed; 0 % means that none of the […] have been killed.

Series [1] in a line: logP (HCOOH) determination. The series is classed as physicochemical.

Bounds are passed on as bounds.

For the molecule `C[C@H](NC(=S)NCCO)c1ccc(Cl)cc1` [Compound No. 158], the inhibition at 20 ppm in the series on Meloidogyne incognita was at least 80%. Besides, the mortality at 100 g/ha in the series on Tetranychus urticae was at least 80%. In addition, in the series on Boophilus microplus, the “efficiency (100 % means that no tick has lay fertile eggs)” value is at least 80%. For the same molecule, the mortality at 500 g/ha in the series with Myzus persicae was at least 80%.

Molecule `C[C@H](NC(=S)NCCO)c1ccc(F)cc1` [EXAMPLE 1] gave a chromatographic logP in series [1] of 1.52. On the same count and under the same terms, for `C[C@H](NC(=S)NCCO)c1ccccc1F` [EXAMPLE 2] the value was 1.5.

For `CC(NC(=S)NCCO)c1cccc(F)c1` (centres unmarked) [compound 3], the “efficiency (100 % means that no tick has lay fertile eggs)” value in the series with Boophilus microplus was at least 80%. In the series with Myzus persicae, this molecule displayed a mortality at 100 g/ha of at least 80%. In turn, `C[C@H](NC(=S)NCCO)c1ccccc1` [compound 5] came in with a mortality at 500 g/ha in the series on Myzus persicae of at least 80%.

Take `C[C@H](NC(=S)NCCO)c1ccccc1F` [compound 6]: the mortality at 100 g/ha in the series on Tetranychus urticae and in the series with Myzus persicae was at least 80% throughout. The “efficiency (100 % means that no tick has lay fertile eggs)” value in the series on Boophilus microplus is recorded as at least 80%. For `C[C@H](NC(=S)NCCO)c1ccc(F)cc1` [compound 8], in the series on Myzus persicae, the mortality at 500 g/ha was at least 80%. On the same count and under the same terms, next, `CC[C@H](NC(=S)NCCO)c1ccccc1` [compound 13]: at least 80%.

As a reminder, the mortality is the percentage killed. A low value points to a weak lethal effect. In general, chromatographic logP refers to a lipophilicity value derived from retention on a column. The low end stands for lower lipophilicity, the high end for higher lipophilicity.
